Data set [1] can be described thus: Hemolytic activity against human RBC. The conditions noted are these: erythrocyte. Type of data set: ADME, cell-based.
Data set [2] relates to Escherichia coli. The data set can be described thus: Antibacterial activity against wild-type Escherichia coli. Type of data set: functional.
For data set [3], the system named is Escherichia coli. The data set can be described thus: Antibacterial activity against acrAB-efflux pump deficit Escherichia coli. Type of data set: functional.
Data set [4] has as its system Staphylococcus aureus. As to the kind of experiment: Antibacterial activity against methicillin-resistant Staphylococcus aureus by CLSI broth dilution method. Type of data set: functional. On the technique in general: Broth dilution looks for growth in wells or tubes with falling amounts of substance.
The nature of data set [5]: Selectivity ratio of MIC for Staphylococcus epidermidis PAS9001 harboring SPase S29P mutant to MIC for Staphylococcus epidermidis RP62A. Format: functional.
Data set [6] has as its system Escherichia coli. The data set can be described thus: Antibacterial activity against Escherichia coli PAS0232 harboring SPase P84S mutant by CLSI microbroth dilution assay. Format: functional.
In data set [7] the test system is Staphylococcus epidermidis. As to the kind of experiment: Antibacterial activity against Staphylococcus epidermidis PAS8001 harboring SPase P29S mutant by CLSI microbroth dilution method. Format: functional.
In data set [8] the test system is Staphylococcus epidermidis. The data set can be described thus: Antibacterial activity against Staphylococcus epidermidis PAS9001 harboring SPase S29P mutant by CLSI microbroth dilution assay. Format: functional.
Data set [9] concerns Pseudomonas aeruginosa. As to the kind of experiment: Antibacterial activity against Pseudomonas aeruginosa PAS2006 harboring SPase P84S mutant by CLSI microbroth dilution assay. Type of data set: functional.
The subject of data set [10] is Staphylococcus epidermidis. As to the kind of experiment: Antibacterial activity against Staphylococcus epidermidis RP62A harboring wild-type SPase by CLSI microbroth dilution method. Type of data set: functional.
In data set [11] the test system is Escherichia coli. The data set can be described thus: Antibacterial activity against Escherichia coli by agar dilution method. Format: functional.
Data set [12] relates to Escherichia coli. As to the kind of experiment: Antibacterial activity against tolC-deficit Escherichia coli in presence of human serum albumin. Type of data set: functional.
Data set [13] concerns Escherichia coli. The data set can be described thus: Antibacterial activity against tolC-deficit Escherichia coli measured after 16 hrs by serial dilution method. Type of data set: functional.
In data set [14] the test system is Pseudomonas aeruginosa. The data set can be described thus: Antibacterial activity against Pseudomonas aeruginosa ATCC 27853 by microdilution method. Format: functional.
Data set [15] concerns Pseudomonas aeruginosa. As to the kind of experiment: Antibacterial activity against Pseudomonas aeruginosa. Type of data set: functional.
Data set [16] concerns Staphylococcus aureus. As to the kind of experiment: Antibacterial activity against Staphylococcus aureus. Format: functional.
The next data set concerns Acinetobacter baumannii. The data set can be described thus: Antibacterial activity against Acinetobacter baumannii. Type of data set: functional.
The test system of data set [17] is Pseudomonas aeruginosa. The data set can be described thus: Potentiation of colistin-induced antibacterial activity against Pseudomonas aeruginosa PAO1 infected in BALB/c mouse assessed as log reduction in bacterial burden in lungs at 2.08 mg/kg, it measured after 6 hrs by serial dilution method. Format: functional, Lung.
Data set [18] relates to Escherichia coli. As to the kind of experiment: Antibacterial activity against wild-type Escherichia coli measured after 16 hrs by serial dilution method. Format: functional.
In data set [19] the test system is Pseudomonas aeruginosa. The data set can be described thus: Antibacterial activity against wild-type Pseudomonas aeruginosa measured after 16 hrs by serial dilution method. Type of data set: functional.
The test system of data set [20] is Pseudomonas aeruginosa. As to the kind of experiment: Antibacterial activity against MexABCDXY-deficit Pseudomonas aeruginosa measured after 16 hrs by serial dilution method. Type of data set: functional.
In data set [21] the test system is Pseudomonas aeruginosa. The data set can be described thus: Antibacterial activity against Pseudomonas aeruginosa PAO1 measured after 16 to 20 hrs by microbroth dilution assay. Type of data set: functional.
Data set [22] relates to Escherichia coli. The data set can be described thus: Antibacterial activity against Escherichia coli after 16 to 20 hrs by agar well diffusion method. Type of data set: functional.
A short description of data set [23]: Inhibition of Escherichia coli His6-tagged LpxD after 15 mins by fluorescence polarization assay.
A short description of data set [24]: Inhibition of Escherichia coli LpxA after 15 mins by fluorescence polarization assay. A general note: Fluorescence polarisation rises when a labelled molecule tumbles more slowly, as on binding a larger partner.

Converted amounts (≈) assume the structure as drawn. *1 amine or outer side, *2 acyl side, *3 side chain or, on linkers, in order; H or OH if unused. Where a SMILES comes first, the peptide text is derived from it. Bridges are numbered along the chain shown (N, C = ends). [ ]: non-standard residue; d: D form. The star is where a group is joined. X1 = CC(C)=CCc1ccc(Cl)c2[nH]cc(CC(N[*:1])C(=O)[*:2])c12; Trp(7-Cl) = N[CH](Cc1c[nH]c2c(Cl)cccc12)C(=O)O; Malonyl = O=C(CC(=O)[*:2])[*:1]; Cya = N[CH](CS(=O)(=O)O)C(=O)O; dDab = NCC[C@@H](N)C(=O)O; Octanoyl = CCCCCCCC(=O)*; Orn = NCCC[C@H](N)C(=O)O; Dab = NCC[C@H](N)C(=O)O

The compound `CC[C@H](C)[C@@H]1NC(=O)[C@H](Cc2c[nH]c3ccccc23)NC(=O)[C@H]([C@@H](C)O)NC(=O)[C@@H]2CCCN2C(=O)[C@H]2CCCN2C(=O)[C@H](CCN)NC(=O)[C@H](C)NC(=O)[C@H](CCN)NC(=O)[C@H](CCN)NC(=O)[C@H](Cc2c[nH]c3ccccc23)NC(=O)[C@H](CCN)NC(=O)[C@@H](CCN)NC(=O)[C@H](CCCCN)NC(=O)[C@H](CCN)NC1=O` (cyclo(TWI[Dab]K[dDab][Dab]W[Dab][Dab]A[Dab][dP]P)) showed an Activity in data set [1] above 100 µg/mL.
Usually MIC stands for the lowest concentration found to suppress growth. Turning to `Sc1ccccc1C1=NCCCN1`, the MIC in the data set on Escherichia coli [2] is 16 µg/mL (≈ 83.2 µM); with Escherichia coli [3], 8 µg/mL (≈ 41.6 µM).
With `CC(C)=CCc1ccc(Cl)c2[nH]cc(CC3NC(=O)C(Cc4c[nH]c5c(Cl)cccc45)NC(=O)C4CCCN4C(=O)C(CS(=O)(=O)O)NC(=O)C(NC(=O)C(NC(=O)C(C)NC(=O)CC(=O)O)C(C)C)COC(=O)C(CO)NC(=O)C(CC(C)C)NC(=O)C(C(C)C)NC3=O)c12` (configuration not stated) (Malonyl-AVS[Cya]P[Trp(7-Cl)][X1]VLS; ester 3-C; configuration not given here), the MIC against Staphylococcus aureus [4] was in the range of 0.5 to 128 µg/mL (≈ 0.357 to 91.4 µM).
On to `CCCCCCCCCCCCCCCC(=O)N(C)[C@H](CO)C(=O)N[C@H](C)C(=O)NCC(=O)N(C)[C@@H]1C(=O)N[C@@H](C)C(=O)N[C@@H](C(=O)O)Cc2ccc(O)c(c2)-c2cc1ccc2O`, for which the Ratio in data set [5] stood at 32. Further, the MIC is 4 µg/mL (≈ 4.54 µM) with Escherichia coli [6]; 2 µg/mL (≈ 2.27 µM) in data set [7]; 8 µg/mL (≈ 9.08 µM) in data set [8]; 8 µg/mL (≈ 9.08 µM) in the data set with Pseudomonas aeruginosa [9]; 0.25 µg/mL (≈ 0.284 µM) in [10].
For `CN(C)c1ccc(C2=NCCCN2)c(S)c1`, the MIC with Escherichia coli [2] is 16 µg/mL (≈ 68 µM); against Escherichia coli [3], 8 µg/mL (≈ 34 µM).
In the data set with Escherichia coli [11], `CCC[C@@H]1OC(=O)[C@@H](C)C[C@H](C)CCCCC(=O)CCC[C@@H](CC)/C=C/C=C(\COC)CC[C@@H](O)[C@@H](O)C[C@H](O)CNC1=O` registered a minimum inhibitory concentration (MIC) of 6.25 µg/mL (≈ 10 µM).
For `CC(C)(C)c1nc(-c2ccc3c(c2)OCCO3)c(-c2ccncc2)[nH]1`, the figures for the minimum inhibitory concentration (MIC) in the data set on Escherichia coli [2], in the data set with Escherichia coli [12] and against Escherichia coli [13] were 32 µg/mL (≈ 95.4 µM), 4 µg/mL and 0.25 µg/mL (≈ 0.745 µM), respectively.
With `CC(C)(N)[C@H](NC(=O)c1ccc(C#CC#C[C@@H]2C[C@H]2CO)cc1)C(=O)NO` [ACHN-975], in the data set with Pseudomonas aeruginosa [14], the MIC was determined as 0.25 µg/mL (≈ 0.677 µM).
For `Fc1ccc(COc2cccc(-c3n[nH]cc3-c3ccncc3)c2)cc1`, the minimum inhibitory concentration (MIC) was 8 µg/mL (≈ 23.2 µM) against Escherichia coli [2], 16 µg/mL in the data set with Escherichia coli [12] and below 0.063 µg/mL against Escherichia coli [13].
For `CC[C@H](C)[C@@H]1NC(=O)[C@H](CCCNC(=N)N)NC(=O)[C@H](Cc2cc3ccccc3[nH]2)NC(=O)[C@@H]2CCCN2C(=O)[C@H]2CCCN2C(=O)[C@H](CCCNC(=N)N)NC(=O)[C@H](CCCNC(=N)N)NC(=O)[C@H](CC(C)C)NC(=O)[C@H](CCCNC(=N)N)NC(=O)[C@H](CCCCN)NC(=O)[C@H](Cc2c[nH]c3ccccc23)NC(=O)[C@@H](CCCNC(=N)N)NC(=O)[C@H]([C@@H](C)CC)NC(=O)[C@H](CCCNC(=N)N)NC1=O`, the MIC against Escherichia coli [2] worked out at 0.25 µg/mL (≈ 0.127 µM); in the data set on Pseudomonas aeruginosa [15] it was 4 µg/mL (≈ 2.03 µM); with Staphylococcus aureus [16], 2 µg/mL (≈ 1.01 µM); against Acinetobacter baumannii, 1 µg/mL (≈ 0.507 µM).
Consider `CC[C@H](C)[C@H](NC(=O)[C@@H](N)Cc1ccccc1)C(=O)N[C@@H](CCCNC(=N)N)C(=O)N[C@@H](CC(C)C)C(N)=O` (H-FIRL-NH2), for which the Activity in the data set on Pseudomonas aeruginosa [17] amounted to 1 log10CFU/ml.
In the case of `N=C(N)SCc1ccc(Cl)c(Cl)c1`, the MIC was above 32 µg/mL against Escherichia coli [18], 4 µg/mL (≈ 17 µM) in the data set with Pseudomonas aeruginosa [19], above 32 µg/mL with Escherichia coli [13] and 1 µg/mL (≈ 4.25 µM) in the data set with Pseudomonas aeruginosa [20].
In the data set with Pseudomonas aeruginosa [21], `C[C@@H](O)[C@H](NC(=O)c1ccc(C#Cc2ccc(CN3CCOCC3)cc2)cc1)C(=O)NO` yielded an MIC of 1 µg/mL (≈ 2.29 µM).
`CC[C@H](C)[C@@H]1NC(=O)[C@H](Cc2c[nH]c3ccccc23)NC(=O)[C@H]([C@@H](C)O)NC(=O)[C@@H]2CCCN2C(=O)[C@H]2CCCN2C(=O)[C@H](CO)NC(=O)[C@H](C)NC(=O)[C@H](CCN)NC(=O)[C@H](CCN)NC(=O)[C@H](Cc2c[nH]c3ccccc23)NC(=O)[C@H](CCN)NC(=O)[C@@H](CCN)NC(=O)[C@H](CCCN)NC(=O)[C@H](CCN)NC1=O` [MUREPAVADIN] (cyclo(TWI[Dab][Orn][dDab][Dab]W[Dab][Dab]AS[dP]P)) gave a minimal inhibitory concentration (MIC) against Pseudomonas aeruginosa [14] of 0.008 µg/mL (≈ 0.00515 µM).
For orientation: MIC90 means the lowest concentration that inhibits either 90% of growth or 90% of the strains tested, depending on the study. Lower therefore signals greater potency. `CCCCCCCC(=O)N[C@H](C(=O)N[C@@H](CO)C(=O)N[C@H]1CCNC(=O)[C@H]([C@@H](C)O)NC(=O)[C@H](CCN)NC(=O)[C@H](CCN)NC(=O)[C@H](CC(C)C)NC(=O)[C@@H](Cc2ccccc2)NC(=O)[C@H](CCN)NC1=O)[C@@H](C)O` (Octanoyl-TS[Dab][Dab][dF]L[Dab][Dab]T; lactam 3-C) registered an MIC90 against Escherichia coli [22] of 1 µg/mL (≈ 0.929 µM).
`CCCC(C)/C=C(/C)C(=O)OC(CCCCCCC/C=C/C(=O)NCCC(=O)NC(CS(=O)(=O)O)C(=O)N(C)C1C(=O)NC(C)C(=O)NC(C(=O)O)Cc2ccc(OS(=O)(=O)O)c(c2)-c2cc1cc(OS(=O)(=O)O)c2OC1O[C@H](C)[C@@H](O)[C@H](O)[C@@H]1O)CCC(C)C` (some centres not stated) yielded an MIC with Staphylococcus aureus [4] of 16 to 128 µg/mL (≈ 11.9 to 94.9 µM).
The Kd is the equilibrium constant for the complex coming apart. As for H-TNLYMLPKWDIP-NH2, the Kd is 6 µM in data set [23] and 20 µM in data set [24].
`CCC[C@@H]1OC(=O)[C@@H](C)C[C@H](C)CCCCC(=O)CCC[C@@H](CC)CC/C=C(\COC)CC[C@@H](O)[C@@H](O)C[C@H](O)CNC1=O` returned an MIC against Escherichia coli [11] of 3.12 µg/mL (≈ 4.98 µM).
On the same count and under the same terms, the result for `CCCCCCCCCC[C@H]1OC(=O)CNC(=O)[C@H]([C@@H](C)O)NC(=O)[C@H](CO)NC(=O)[C@H]([C@H](C)CC)NC(=O)[C@H](CC(C)C)N(C)C(=O)[C@@H]1C` reads 1.56 µg/mL (≈ 2.19 µM).

(Values after ChEMBL document CHEMBL3864123, “Drug discovery strategies to outer membrane targets in Gram-negative pathogens” (Bioorg Med Chem, 2016).)
